Results as given in PubChem BioAssay AID1963846 (Molecular Pharmacology Branch, DTP, NCI, 2024).

Tested on: 454973-116-R2-J3-PDC complex spheroid viability
Assay: Anticancer human tumor 454973-116-R2-J3-PDC patient-derived pancreatic carcinoma cell line growth inhibition [POLQ]
Details: for IC50: curve of first compound; for viability, T/C: stronger effect = lower value
Description: Multicellular complex tumor spheroid response to Polymerase (POL) inhibitors (novobiocin, ART-558, RP6685) in combination with a variety of drugs and investigational agents in selected tumor cell lines
The POL inhibitors (novobiocin, ART-558, and RP6685) were evaluated both individually and in combination with standard of care and investigational anticancer small molecules within a complex spheroid model of solid tumors. . Complex spheroids include a stromal component modeled by human endothelial cells (HUVEC) and fibroblasts modeled by human mesenchymal stem cells (MSCs). The concentration ranges selected for each drug and investigational agent were based upon clinically achievable concentrations if the clinical Cmax of the agent was known.
Compounds. The drugs and investigational agents: novobiocin (NSC847541), ART-558 (NSC835418), RP-6685 (NSC848927), peposertib (NSC802822), ceralasertib (NSC780249), elimusertib (NSC800525), camonsertib (NSC841442), AZD-1390 (NSC803789), olaparib (NSC753686), talazoparib (NSC767125), rucaparib (NSC756644), sotorasib (NSC818433), MRTX-1133 (NSC836407), SN-38 (NSC673596), topotecan (NSC609699), epotoside (NSC141540), doxorubicin (NSC123127), gemcitabine (NSC613327), 5-fluorouracil (NSC19893), paclitaxel (NSC125973), vemurafenib (NSC761431), MSA-2 (NSC828583), SN-011 (NSC837082), adavosertib (NSC754352), prexasertib (NSC758257), carboplatin (NSC241240) and oxaliplatin (NSC266046), were obtained from the National Cancer Institute (NCI) Developmental Therapeutics Program Chemical Repository (21). The FDA-approved anticancer drug set is available from the Developmental Therapeutics Program at https://dtp.cancer.gov/organization/dscb/obtaining/. […] The stock solutions were prepared in dimethyl sulfoxide (DMSO, Sigma-Aldrich, St. Louis, MO, cat. D2650), except for the platinum compounds which were prepared in saline (Quality Biological, Gaithersburg, MD, cat. 114-055-101), at 800-fold the tested concentration and stored at -70 degrees C prior to their use. All drugs and investigational agents were tested over a range starting from a high concentration at or near the clinical Cmax and decreasing in half-log increments. If the clinical Cmax for an agent had not been determined, the highest concentration tested was 10 microM, except for SN-38, which was tested at a high concentration of 1 microM.
Cell Culture. All cells were maintained in an incubator at 37 degrees C and 5% CO2 with 95% humidity. The PDC lines were cultured according to standard operating procedures established by the NCI PDMR (https://pdmr.cancer.gov). Table 3 of the manuscript, lists the cell lines along with the number of the three cell types plated to form the mct-spheroids and media for tumor cell growth. After thawing, all PDC lines, except 997537-175-T-J1-PDC and 415267-285-R-J2-PDC, were cultured in Matrigel-coated flasks prepared with a working solution of 1X Ham's F-12 nutrient mix, without supplementation (Thermo Fisher Scientific, cat. 11765054), 100 U/mL penicillin-streptomycin (Thermo Fisher Scientific, cat. 15140122), and 2.5% Matrigel (Corning Inc., Corning, NY, cat. 354248) for the first three passages. The two PDC lines 997537-175-T-J1-PDC and 415267-285-R-J2-PDC were cultured on uncoated flasks. The 857933-349-R-J2-PDC line was cultured in 6C/Colon 1B media containing advanced DMEM/F-12 (Thermo Fisher Scientific, cat. 12634028), 10 mM HEPES (Thermo Fisher Scientific, cat. 15630080), 1X GlutaMAX supplement (Thermo Fisher Scientific, cat. 35050061), 0.1 mg/mL primocin (InvivoGen, San Diego, CA, cat. ant-pm-2), 10% defined fetal bovine serum, heat inactivated (HyClone Laboratories Inc., Logan, UT, cat. SH30070.03HI), 50% L-WRN conditioned media (ATCC, cat. CRL-3276), 1.25 mM N-Acetyl-L-cysteine (Sigma-Aldrich, cat. A9165), 10 mM nicotinamide (Sigma-Aldrich, cat. N0636), 1X B-27 supplement (Thermo Fisher Scientific, cat. 17504044), 1X N-2 supplement (Thermo Fisher Scientific, cat. […]
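Note: spheroids exposed to drugs for seven days before measurement.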
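Throughout, for viability, T/C: percent viability relative to DMSO vehicle control wells taken as 100%.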

CC(=O)O[C@H]1C(=O)[C@@]2(C)[C@H]([C@H](OC(=O)c3ccccc3)[C@]3(O)C[C@H](OC(=O)[C@H](O)[C@@H](NC(=O)c4ccccc4)c4ccccc4)C(C)=C1C3(C)C)[C@]1(OC(C)=O)CO[C@@H]1C[C@@H]2O + COC1C(OC(N)=O)C(O)C(Oc2ccc3c(O)c(NC(=O)c4ccc(O)c(CC=C(C)C)c4)c(=O)oc3c2C)OC1(C)C
IC50 (second compound 0.0316 µM): < 9.49 nM | IC50 (second compound 0.1 µM): < 9.49 nM | IC50 (second compound 0.316 µM): < 9.49 nM | IC50 (second compound 1 µM): < 9.49 nM | IC50 (second compound 3.16 µM): < 9.49 nM | IC50 (second compound 10 µM): < 9.49 nM | viability, T/C (second compound 0.0316 µM, first compound 0.00949 µM): 11.9% | viability, T/C (second compound 0.0316 µM, first compound 0.03 µM): 7.88% | viability, T/C (second compound 0.0316 µM, first compound 0.0949 µM): 6.54% | viability, T/C (second compound 0.0316 µM, first compound 0.3 µM): 5.33% | viability, T/C (second compound 0.0316 µM, first compound 0.949 µM): 6.41% | viability, T/C (second compound 0.0316 µM, first compound 3 µM): 7.66% | viability, T/C (second compound 0.1 µM, first compound 0.00949 µM): 12.8% | viability, T/C (second compound 0.1 µM, first compound 0.03 µM): 5.37% | viability, T/C (second compound 0.1 µM, first compound 0.0949 µM): 5.19% | viability, T/C (second compound 0.1 µM, first compound 0.3 µM): 5.57% | viability, T/C (second compound 0.1 µM, first compound 0.949 µM): 5.27% | viability, T/C (second compound 0.1 µM, first compound 3 µM): 3.86% | viability, T/C (second compound 0.316 µM, first compound 0.00949 µM): 10.7% | viability, T/C (second compound 0.316 µM, first compound 0.03 µM): 5.28% | viability, T/C (second compound 0.316 µM, first compound 0.0949 µM): 6.4% | viability, T/C (second compound 0.316 µM, first compound 0.3 µM): 4.53% | viability, T/C (second compound 0.316 µM, first compound 0.949 µM): 6.27% | viability, T/C (second compound 0.316 µM, first compound 3 µM): 5.12% | viability, T/C (second compound 1 µM, first compound 0.00949 µM): 13.2% | viability, T/C (second compound 1 µM, first compound 0.03 µM): 5.82% | viability, T/C (second compound 1 µM, first compound 0.0949 µM): 6.61% | viability, T/C (second compound 1 µM, first compound 0.3 µM): 5.98% | viability, T/C (second compound 1 µM, first compound 0.949 µM): 5.03% | viability, T/C (second compound 1 µM, first compound 3 µM): 5.86% | viability, T/C (second compound 3.16 µM, first compound 0.00949 µM): 11.1% | viability, T/C (second compound 3.16 µM, first compound 0.03 µM): 7.33% | viability, T/C (second compound 3.16 µM, first compound 0.0949 µM): 4.63% | viability, T/C (second compound 3.16 µM, first compound 0.3 µM): 3.97% | viability, T/C (second compound 3.16 µM, first compound 0.949 µM): 3.87% | viability, T/C (second compound 3.16 µM, first compound 3 µM): 4.77% | viability, T/C (second compound 10 µM, first compound 0.00949 µM): 12.8% | viability, T/C (second compound 10 µM, first compound 0.03 µM): 4.79% | viability, T/C (second compound 10 µM, first compound 0.0949 µM): 7.63% | viability, T/C (second compound 10 µM, first compound 0.3 µM): 5.47% | viability, T/C (second compound 10 µM, first compound 0.949 µM): 3.92% | viability, T/C (second compound 10 µM, first compound 3 µM): 5.39%
